Columns and labels:
[1] = molecular target: T1, HCN4 (Homo sapiens, UniProt Q9Y3Q4); experiment: cell-based
T1 sequence (Q9Y3Q4 1-1203): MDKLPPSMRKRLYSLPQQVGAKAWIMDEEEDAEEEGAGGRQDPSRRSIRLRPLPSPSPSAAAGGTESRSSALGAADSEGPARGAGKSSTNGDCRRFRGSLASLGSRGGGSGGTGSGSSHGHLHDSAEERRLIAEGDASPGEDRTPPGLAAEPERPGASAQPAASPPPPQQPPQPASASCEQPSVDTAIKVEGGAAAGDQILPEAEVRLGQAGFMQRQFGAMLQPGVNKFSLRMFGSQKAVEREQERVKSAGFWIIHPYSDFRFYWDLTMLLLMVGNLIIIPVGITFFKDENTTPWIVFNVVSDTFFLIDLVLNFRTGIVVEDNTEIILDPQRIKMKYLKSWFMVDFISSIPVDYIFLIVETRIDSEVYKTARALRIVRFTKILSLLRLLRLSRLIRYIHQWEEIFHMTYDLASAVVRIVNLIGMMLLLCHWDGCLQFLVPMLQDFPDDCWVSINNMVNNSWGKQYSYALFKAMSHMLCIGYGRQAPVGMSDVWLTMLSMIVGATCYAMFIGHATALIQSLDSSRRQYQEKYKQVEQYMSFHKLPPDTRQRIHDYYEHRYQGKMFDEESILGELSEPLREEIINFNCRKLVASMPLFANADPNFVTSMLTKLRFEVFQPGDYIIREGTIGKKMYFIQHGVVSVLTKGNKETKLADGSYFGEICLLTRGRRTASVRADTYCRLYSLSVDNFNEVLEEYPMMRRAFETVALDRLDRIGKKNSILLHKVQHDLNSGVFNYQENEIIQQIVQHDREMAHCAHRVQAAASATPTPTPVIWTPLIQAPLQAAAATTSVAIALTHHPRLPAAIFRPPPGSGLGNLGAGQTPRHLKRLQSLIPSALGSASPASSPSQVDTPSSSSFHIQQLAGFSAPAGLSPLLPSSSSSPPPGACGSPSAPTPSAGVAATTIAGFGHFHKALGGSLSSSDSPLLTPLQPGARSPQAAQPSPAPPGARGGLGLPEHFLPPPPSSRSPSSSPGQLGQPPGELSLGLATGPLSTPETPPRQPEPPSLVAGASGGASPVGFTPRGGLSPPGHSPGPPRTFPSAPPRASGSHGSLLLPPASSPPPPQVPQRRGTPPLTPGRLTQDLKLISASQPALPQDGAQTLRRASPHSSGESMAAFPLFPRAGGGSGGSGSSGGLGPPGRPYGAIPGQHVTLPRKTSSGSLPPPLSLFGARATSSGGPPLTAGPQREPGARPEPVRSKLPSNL

[2] = molecular target: T2, EAG1 (Homo sapiens, UniProt O95259); experiment: cell-based
T2 sequence (O95259 1-989): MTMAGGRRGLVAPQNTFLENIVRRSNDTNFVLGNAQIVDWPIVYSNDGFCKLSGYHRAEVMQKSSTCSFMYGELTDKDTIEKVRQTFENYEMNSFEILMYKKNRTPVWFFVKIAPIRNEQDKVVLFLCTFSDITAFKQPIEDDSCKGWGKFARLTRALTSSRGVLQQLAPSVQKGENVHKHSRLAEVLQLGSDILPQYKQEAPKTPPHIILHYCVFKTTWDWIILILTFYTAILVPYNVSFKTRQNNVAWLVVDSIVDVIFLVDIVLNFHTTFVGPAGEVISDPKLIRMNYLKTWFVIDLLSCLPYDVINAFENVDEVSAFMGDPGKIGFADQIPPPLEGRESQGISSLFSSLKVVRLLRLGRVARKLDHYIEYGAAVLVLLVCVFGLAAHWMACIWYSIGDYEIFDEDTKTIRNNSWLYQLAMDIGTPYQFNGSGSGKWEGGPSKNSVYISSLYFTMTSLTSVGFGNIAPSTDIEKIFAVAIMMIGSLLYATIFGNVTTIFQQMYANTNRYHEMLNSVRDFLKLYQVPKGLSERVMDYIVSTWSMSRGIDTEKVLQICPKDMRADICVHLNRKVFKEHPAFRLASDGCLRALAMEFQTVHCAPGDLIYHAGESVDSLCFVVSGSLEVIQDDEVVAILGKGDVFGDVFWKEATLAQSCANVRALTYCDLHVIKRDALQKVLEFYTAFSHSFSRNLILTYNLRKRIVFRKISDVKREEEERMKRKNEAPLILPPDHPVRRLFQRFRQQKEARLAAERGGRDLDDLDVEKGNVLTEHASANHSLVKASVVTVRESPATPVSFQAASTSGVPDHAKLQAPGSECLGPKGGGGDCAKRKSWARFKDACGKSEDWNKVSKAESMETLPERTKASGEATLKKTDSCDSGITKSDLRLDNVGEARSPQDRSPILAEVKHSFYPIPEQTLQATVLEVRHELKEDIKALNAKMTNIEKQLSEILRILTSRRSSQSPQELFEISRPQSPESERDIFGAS

[3] = molecular target: TASK-1 (K2P3.1), wild type (Homo sapiens, UniProt O14649); experiment: two-electrode voltage clamp, Xenopus oocytes; format: cell-based
TASK-1 (K2P3.1), wild type, sequence (O14649 whole entry): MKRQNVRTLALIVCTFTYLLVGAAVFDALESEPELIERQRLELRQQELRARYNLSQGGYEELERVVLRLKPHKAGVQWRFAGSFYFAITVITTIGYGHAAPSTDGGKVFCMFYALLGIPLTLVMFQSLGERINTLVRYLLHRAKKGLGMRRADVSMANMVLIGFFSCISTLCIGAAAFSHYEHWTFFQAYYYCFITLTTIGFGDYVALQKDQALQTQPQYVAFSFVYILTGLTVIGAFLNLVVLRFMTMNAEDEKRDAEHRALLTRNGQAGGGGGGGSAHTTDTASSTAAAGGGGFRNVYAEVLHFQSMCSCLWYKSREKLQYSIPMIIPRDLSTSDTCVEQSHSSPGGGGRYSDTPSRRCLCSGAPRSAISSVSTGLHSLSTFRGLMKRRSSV

[4] = molecular target: Cav1.2 (Homo sapiens, UniProt Q13936); experiment: cell-based
Cav1.2, sequence (Q13936 whole entry): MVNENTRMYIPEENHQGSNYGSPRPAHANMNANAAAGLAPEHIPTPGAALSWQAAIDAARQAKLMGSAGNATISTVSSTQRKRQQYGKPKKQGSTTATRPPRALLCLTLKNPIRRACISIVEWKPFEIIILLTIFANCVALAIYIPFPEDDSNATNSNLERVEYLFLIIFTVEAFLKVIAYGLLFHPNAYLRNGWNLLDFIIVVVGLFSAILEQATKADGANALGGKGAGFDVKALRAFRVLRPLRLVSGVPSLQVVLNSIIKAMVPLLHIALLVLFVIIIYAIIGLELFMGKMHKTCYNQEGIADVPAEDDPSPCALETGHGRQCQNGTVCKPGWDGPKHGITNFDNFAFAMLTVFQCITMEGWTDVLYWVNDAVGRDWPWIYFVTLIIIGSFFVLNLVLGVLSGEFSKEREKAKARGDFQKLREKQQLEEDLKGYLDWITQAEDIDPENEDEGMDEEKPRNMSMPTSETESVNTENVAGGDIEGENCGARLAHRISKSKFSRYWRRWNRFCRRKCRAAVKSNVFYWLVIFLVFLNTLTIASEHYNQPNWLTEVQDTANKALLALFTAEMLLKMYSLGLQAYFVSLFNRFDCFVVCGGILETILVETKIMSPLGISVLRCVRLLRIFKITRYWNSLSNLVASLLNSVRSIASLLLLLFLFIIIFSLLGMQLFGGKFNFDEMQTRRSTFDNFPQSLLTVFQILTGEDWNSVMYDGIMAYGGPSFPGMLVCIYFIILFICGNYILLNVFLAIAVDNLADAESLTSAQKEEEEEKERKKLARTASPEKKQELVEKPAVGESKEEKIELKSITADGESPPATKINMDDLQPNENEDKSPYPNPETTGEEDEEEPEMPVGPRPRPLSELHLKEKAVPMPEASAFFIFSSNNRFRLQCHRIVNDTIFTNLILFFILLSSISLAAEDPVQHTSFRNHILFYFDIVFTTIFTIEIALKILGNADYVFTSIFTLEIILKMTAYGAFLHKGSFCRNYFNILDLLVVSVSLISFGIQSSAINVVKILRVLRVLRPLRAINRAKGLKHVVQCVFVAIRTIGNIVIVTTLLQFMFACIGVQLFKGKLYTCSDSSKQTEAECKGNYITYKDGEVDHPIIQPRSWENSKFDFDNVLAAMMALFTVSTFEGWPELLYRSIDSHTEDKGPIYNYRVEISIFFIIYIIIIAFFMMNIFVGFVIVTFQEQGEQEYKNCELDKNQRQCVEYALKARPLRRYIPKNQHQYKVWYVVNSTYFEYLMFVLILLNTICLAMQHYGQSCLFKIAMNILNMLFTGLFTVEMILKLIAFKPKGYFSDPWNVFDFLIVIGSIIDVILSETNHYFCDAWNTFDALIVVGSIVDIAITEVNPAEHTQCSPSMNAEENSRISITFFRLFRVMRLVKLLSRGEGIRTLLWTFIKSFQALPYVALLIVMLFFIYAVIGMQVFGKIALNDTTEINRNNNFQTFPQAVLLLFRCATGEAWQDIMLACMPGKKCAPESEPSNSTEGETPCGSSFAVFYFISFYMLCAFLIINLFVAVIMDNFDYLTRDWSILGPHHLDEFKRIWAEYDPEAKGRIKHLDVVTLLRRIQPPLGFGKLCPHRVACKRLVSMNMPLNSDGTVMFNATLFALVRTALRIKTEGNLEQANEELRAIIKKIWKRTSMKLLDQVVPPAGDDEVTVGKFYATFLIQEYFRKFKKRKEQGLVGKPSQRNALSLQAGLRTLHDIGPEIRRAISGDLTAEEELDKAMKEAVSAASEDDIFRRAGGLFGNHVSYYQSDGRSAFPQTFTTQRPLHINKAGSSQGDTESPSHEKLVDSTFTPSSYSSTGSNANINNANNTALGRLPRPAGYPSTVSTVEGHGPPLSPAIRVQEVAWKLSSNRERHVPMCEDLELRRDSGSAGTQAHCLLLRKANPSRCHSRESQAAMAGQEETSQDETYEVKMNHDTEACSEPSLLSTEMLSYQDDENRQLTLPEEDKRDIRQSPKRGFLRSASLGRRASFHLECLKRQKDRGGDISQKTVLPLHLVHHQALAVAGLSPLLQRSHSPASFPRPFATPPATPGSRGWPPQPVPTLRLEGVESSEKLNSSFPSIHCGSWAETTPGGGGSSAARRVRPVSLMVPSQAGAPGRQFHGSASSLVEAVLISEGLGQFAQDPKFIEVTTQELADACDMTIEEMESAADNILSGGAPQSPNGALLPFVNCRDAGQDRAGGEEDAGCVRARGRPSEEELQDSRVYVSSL

[5] = molecular target: T3, TRESK (Homo sapiens, UniProt Q7Z418); experiment: cell-based
T3 sequence (Q7Z418 1-384): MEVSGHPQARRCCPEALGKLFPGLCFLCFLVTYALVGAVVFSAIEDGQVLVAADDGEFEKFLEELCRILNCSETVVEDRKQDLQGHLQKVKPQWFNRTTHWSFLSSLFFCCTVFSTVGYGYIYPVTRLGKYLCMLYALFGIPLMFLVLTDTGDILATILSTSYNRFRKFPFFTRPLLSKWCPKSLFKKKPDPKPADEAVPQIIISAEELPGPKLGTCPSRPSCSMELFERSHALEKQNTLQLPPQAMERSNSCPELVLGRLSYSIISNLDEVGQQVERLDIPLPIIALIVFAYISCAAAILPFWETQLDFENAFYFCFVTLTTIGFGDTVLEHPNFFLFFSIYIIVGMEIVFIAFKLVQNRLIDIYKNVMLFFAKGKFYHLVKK

IC50 [1]: > 30 µM
IC50 [2]: > 30 µM
EC50 [3]: 0.0095 µM
IC50 [5]: > 30 µM
Compound: O=C(c1ccccc1F)N1CCN(Cc2c(-c3ccc(Br)cc3)nc3ccccn23)CC1 [BAY 1000493, (4-{[2-(4-bromophenyl)imidazo[1,2-a]pyridin-3-yl]methyl}vpiperazin-1-yl)(2-fluorophenyl)methanone]
IC50 [4]: > 30 µM

Reference: article doi:10.1101/706168v1 (biorxiv, 2019)
